Assay [1] has as its system HepG2. The assay is described as follows: Cytotoxicity against human HepG2 cells assessed as decrease in cell viability after 48 hrs by MTT assay. As to conditions: HepG2, 48 h. The class given is functional, cell-based. (Tetrazolium assays rely on reduction of a dye to a coloured formazan, in cell work by metabolically active cells.)
Assay [2] has as its system Hep 3B2. The assay is described as follows: Cytotoxicity against human Hep3B cells assessed as decrease in cell viability after 48 hrs by MTT assay. It counts as functional, cell-based.
In assay [3] the test system is HepG2. As to the kind of experiment: Cell cycle arrest in human HepG2 cells assessed as <2N DNA content at 50 uM after 48 hrs by PI staining based flow cytometry (reference value: 4.18%). It counts as functional.
The subject of assay [4] is HepG2. The assay is described as follows: Cell cycle arrest in human HepG2 cells assessed as 2N DNA content at 50 uM after 48 hrs by PI staining based flow cytometry (reference value: 70.6%). It counts as functional. (Flow cytometry measures light scatter and fluorescence of single cells or particles in a stream.)
The subject of assay [5] is HepG2. As to the kind of experiment: Cell cycle arrest in human HepG2 cells assessed as accumulation at S phase at 50 uM after 48 hrs by PI staining based flow cytometry (reference value: 7%). The class given is functional.
In assay [6] the test system is HepG2. As to the kind of experiment: Cell cycle arrest in human HepG2 cells assessed as 4N DNA content at 50 uM after 48 hrs by PI staining based flow cytometry (reference value: 15.2%). The class given is functional.
In assay [7] the test system is HepG2. The assay is described as follows: Cell cycle arrest in human HepG2 cells assessed as >4N DNA content at 50 uM after 48 hrs by PI staining based flow cytometry (reference value: 2.04%). It counts as functional.
The subject of assay [8] is HepG2. As to the kind of experiment: Induction of apoptosis in human HepG2 cells assessed as rounding of cells at 50 uM after 48 hrs by phase contrast microscopy. It counts as functional, cell-based.
Assay [9] deals with HepG2. The assay is described as follows: Induction of apoptosis in human HepG2 cells assessed as shrinkage of cells at 50 uM after 48 hrs by phase contrast microscopy. It counts as functional, cell-based.
For assay [10], the system named is HepG2. As to the kind of experiment: Induction of apoptosis in human HepG2 cells assessed as apoptotic bodies at 50 uM after 48 hrs by phase contrast microscopy. It counts as functional, cell-based.
Assay [11] relates to HepG2. As to the kind of experiment: Induction of apoptosis in human HepG2 cells assessed as nuclear condensation at 50 uM after 48 hrs by […] staining based fluorescence microscopy. It counts as functional, cell-based.
For assay [12], the system named is HepG2. The assay is described as follows: Induction of apoptosis in human HepG2 cells assessed as viable cells at 50 uM after 48 hrs by Annexin V-FITC/PI staining based flow cytometry (reference value: 95.7%). It counts as functional. To be noted: HepG2, 48 h, read-out: Activity.
The test system of assay [13] is HepG2. The assay is described as follows: Induction of apoptosis in human HepG2 cells assessed as early apoptotic cells at 50 uM after 48 hrs by Annexin V-FITC/PI staining based flow cytometry (reference value: 1.61%). It counts as functional.
For assay [14], the system named is HepG2. The assay is described as follows: Induction of apoptosis in human HepG2 cells assessed as late apoptotic cells at 50 uM after 48 hrs by Annexin V-FITC/PI staining based flow cytometry (reference value: 2.03%). The class given is functional.
Assay [15] relates to HepG2. The assay is described as follows: Induction of apoptosis in human HepG2 cells assessed as necrotic cells at 50 uM after 48 hrs by Annexin V-FITC/PI staining based flow cytometry (reference value: 0.62%). It counts as functional.
The test system of assay [16] is HepG2. The assay is described as follows: Induction of intracellular ROS accumulation in human HepG2 cells at 50 uM after 48 hrs by DCFH probe based flow cytometry. It counts as functional, cell-based.

pIC50: −log10 of the molar value. The source made the active and inactive calls. The calls are words filed in the database; no cut-off is given here.

As usually defined, the pIC50 is −log10 of the IC50, conventionally taken in molar units. With `COc1cc([C@H]2Oc3c(OC)cc(/C=C/C=O)cc3[C@@H]2CO)cc(OC)c1O`, the results for the pIC50 in assay [1] and in assay [2] were 4.05 and 4.14, respectively.
For `COc1cc([C@@H]2Oc3c(OC)cc(/C=C/C=O)cc3[C@H]2CO)ccc1O`, in that order: 4.41 and 4.50.
`COc1cc([C@H]2Oc3c(OC)cc(/C=C/CO)cc3[C@@H]2CO)ccc1O`: the figures for the pIC50 in [1] and in [2] were 4.45 and 4.28, respectively. Besides, the Activity is 3.86% in assay [3]; 70.2% in assay [4]; 6.2% in assay [5]; 19.1% in assay [6]; 0.6% in assay [7]; 8.39% in [13]. Moreover, the Activity is 3.87% in [14] and 1.71% in [15]. Further, the result in assay [8], in assay [9], in assay [10], in assay [11] and in assay [16] was Active. The viability at 50 µM in [12] amounted to 86%.
Turning to `COc1cc([C@@H]2Oc3c(OC)cc(/C=C/CO)cc3[C@H]2CO)ccc1O` [DEHYDROCONIFERYL ALCOHOL], the pIC50 in assay [1] was 3.98; in assay [2] it was 4.26. Besides, the Activity in assay [3] is recorded as 3.76%; in [4], 70.1%; in [5], 8.2%; in [6], 16.8%; in [7], 1.14%; in [13], 2.5%. Also, the Activity in assay [14] was 2.37%; in assay [15] it was 0.74%. Also, the outcome in [8], in assay [9], in assay [10] and in [11] was Active. In assay [12], the viability at 50 µM was 94.4%. The result in assay [16] was inactive.
Turning to `COc1cc(C2Oc3c(OC)cc(/C=C/C=O)cc3C2CO)cc(OC)c1O` (racemic), the pIC50 in assay [1] is 4.09; in assay [2] it was 4.11.
The like results for `COc1cc([C@H]2Oc3c(OC)cc(/C=C/C=O)cc3[C@@H]2CO)ccc1O` were, in that order, 4.42 and 4.65.
For `COc1cc([C@@H]2Oc3c(OC)cc(/C=C/C=O)cc3[C@H]2CO)cc(OC)c1O`, in that order: 3.98 and 4.22.
For `COc1cc(C2Oc3c(OC)cc(/C=C/CO)cc3C2CO)ccc1O` (racemic), in that order: 4.10 and 4.18.
For `COc1cc(C2Oc3c(OC)cc(/C=C/C=O)cc3C2CO)ccc1O` (racemic), the pIC50 is 4.44 in [1] and 4.53 in assay [2].

Values taken from ChEMBL document CHEMBL4184313, “Enantiomeric neolignans from Picrasma quassioides exhibit distinctive cytotoxicity on hepatic carcinoma cells through ROS generation and apoptosis induction” (Bioorg Med Chem Lett, 2018).
